Drawing on publication PMC6768771 (Current cancer drug targets, 2019), this text covers EC50 for 3 compounds.

Holding throughout (test): Cell viability assay
Holding throughout (type): cell-based

For assay [1], the system named is NCI-H661 cells. Particulars: Homo sapiens, NCI-H661, 48 h, read-out: EC50 at 48 h.
For assay [2], the system named is NCI-H1299 cells. The note with it: Homo sapiens, NCI-H1299, 48 h, read-out: EC50 at 48 h.
The subject of assay [3] is NCI-H460 cells. Particulars: Homo sapiens, NCI-H460, 48 h, read-out: EC50 at 48 h.
In assay [4] the test system is NCI-H1573 cells. The note with it: Homo sapiens, NCI-H1573, 48 h, read-out: EC50 at 48 h.
Assay [5] has as its system A549 cells. Particulars: Homo sapiens, A549, 48 h, read-out: EC50 at 48 h.
The test system of assay [6] is NCI-H1563 cells. Particulars: Homo sapiens, NCI-H1563, 48 h, read-out: EC50 at 48 h.

Usually EC50 stands for the concentration at which the effect is half-maximal. Take `CC(=O)O[C@@]12CO[C@@H]1C[C@H](O)[C@@]1(C)C(=O)[C@H](O)C3=C(C)[C@@H](OC(=O)[C@H](O)[C@@H](NC(=O)OC(C)(C)C)c4ccccc4)C[C@@](O)([C@@H](OC(=O)c4ccccc4)[C@H]21)C3(C)C` [Docetaxel]: the EC50 in assay [1] is above 200 µM; in assay [2], 72 µM; in assay [3], 56 µM; in assay [4], above 200 µM; in assay [5], above 200 µM; in assay [6] it was 80 µM.

In the case of `C#Cc1cccc(Nc2ncnc3cc(OCCOC)c(OCCOC)cc23)c1` [Erlotinib], the EC50 in assay [1], in assay [2], in assay [3], in assay [4], in assay [5] and in assay [6] was above 200 µM in each case.

In the case of `CC(=O)O[C@H]1C(=O)[C@@]2(C)[C@H]([C@H](OC(=O)c3ccccc3)[C@]3(O)C[C@H](OC(=O)[C@H](O)[C@@H](NC(=O)c4ccccc4)c4ccccc4)C(C)=C1C3(C)C)[C@]1(OC(C)=O)CO[C@@H]1C[C@@H]2O` [Paclitaxel], the EC50 in assay [1] was 11 µM; in assay [2], 60 µM; in assay [3], 26 µM; in assay [4], above 200 µM; in assay [5], above 200 µM; in assay [6] it was above 200 µM.
